These results are taken from patent publication US12233070B2, “Methods for treating benzodiazepine misuse/use disorder” (University of M[…] Center, priority 2020, dated 2025).

Like-named read-outs stand apart in the source and are kept apart here.

Series [1] deals with CNS benzodiazepine binding sites. The following applies: 1.5 mg/70 kg oral, PET; cited from earlier work.
Series [2] concerns rhesus monkeys. Kind of series: i.v. self-administration under progressive-ratio (PR) schedule. To be noted: dose at which self-administration was highest; n=4 monkeys; FIG. 5. The format is in vivo, rhesus monkey. An excerpt: The abuse potential of novel compounds can be determined by use of i.v. self-administration procedures, in which a compound is available to a subject previously trained to press a lever to obtain a known drug of abuse. Our standard procedure is to use a progressive-ratio (PR) schedule, in which an increasing number of responses are required to obtain an injection. The last response requirement completed is referred to as a “break point” (BP) and represents the maximum amount of “work” a subject will perform to obtain the drug or compound.
In the present example, eight rhesus monkeys (4 females, 4 males) were trained to respond under a schedule of i.v. midazolam (a conventional benzodiazepine) injection at 0.03 mg/kg/injection. Once self-administration had been acquired (>20 injections/daily 2-hour sessions), monkeys were trained under the PR schedule as described by Shinday et al. (2013). Daily experimental sessions consisted of five components, each made up of four trials (i.e., 20 trials total). […]
In order to directly compare lorazepam and TPA023B self-administration, we here analyzed BP values at the doses that maintained the highest level of mean injections/session and compared these BP values with those obtained after vehicle tests.

For series [3], the system named is men. The following applies: cited from earlier work.
For series [4], the target named is α1 subunit-containing GABAA receptors (Homo sapiens, UniProt P14867+P18507). On the set-up: key to Subtype α1: act as partial positive modulators for particular subtype combinations; none: zero efficacy (i.e., antagonism) at other subtypes. The following applies: cited from earlier work.
The target of series [5] is α2 subunit-containing GABAA receptors (Homo sapiens, UniProt P18507+P47869). On the set-up: key: act as partial positive modulators for particular subtype combinations; none: zero efficacy (i.e., antagonism) at other subtypes. The following applies: cited from earlier work.
Series [6] has as its system rhesus monkeys. Description: Observation/sedation, focal animal behavioral scoring. The format is in vivo, rhesus monkey. To be noted: i.v. How it is done:
For the data shown here, the behavior of each monkey (n=4 total) was scored using a focal animal approach as described previously (Duke et al. 2018, J Pharmacol Exp Ther 366: 145-57). Briefly, a trained observer blind to the drug treatments observed a specific monkey for 5 min and recorded each instance that a particular behavior occurred during 15-s intervals. Scores for each behavior were calculated as the number of 15-s bins in which the behavior occurred (e.g., a maximum score would be 20). For sedation measures, structured exposure to stimuli were included in the observation sessions (Duke et al., 2018). […] Specifically, the observer presented three stimuli: 1) walked at a normal pace towards the cage, 2) spoke the animal's name, and 3) moved the lock used to secure the door of the cage. […] If the monkey attended more slowly (i.e., >3 s following stimuli), the observer scored “moderate sedation”.
The assessment of sedation was initiated during the 5-min sampling period if the animal presented, at any time during that period, with its eyes closed for longer than 3 s. The result of this assessment was recorded for each remaining 15-sec interval of the 60-sec epoch unless eyes opened. Afterwards, eyes closing again initiated the assessment. If eyes remained closed, then the assessment was repeated at the beginning of the next 60-sec epoch 15-sec interval. Therefore, the maximum score for sedation during a 5-min period was 20 (four possible scores for 4×15-sec intervals per min, 5 min total; i.e., 4 possible scores×5 min=20). The order in which animals were observed and the observer performing the scoring each day was randomized. Four observers participated in the scoring throughout the duration of the study; each observer underwent a minimum of 20 hours of training and met an inter-observer reliability criterion of ≥90% agreement with all other observers.
The five-min sampling periods were repeated at multiple times following i.v. injection of TPA023B or vehicle (minutes post injection): 5, 10, 20, 40, 80, 160, 320. Scores were cumulated across the time periods, resulting in a maximum possible cumulative score of 140. TPA023B was compared with alprazolam, and the results have been published by Duke et al. (2018).

The test system of series [7] is rhesus monkeys. The following applies: visual recognition memory and spatial working memory; cited from earlier work.
Series [8] deals with α3 subunit-containing GABAA receptors (Homo sapiens, UniProt P18507+P34903). More on the design: key: act as partial positive modulators for particular subtype combinations; none: zero efficacy (i.e., antagonism) at other subtypes. The following applies: cited from earlier work.
Setting [9] is: at least one dose significantly different from vehicle, out of 22 behaviors, N = 4 monkeys.

α2 subunit-containing GABAA receptors, sequence (P47869 29-451): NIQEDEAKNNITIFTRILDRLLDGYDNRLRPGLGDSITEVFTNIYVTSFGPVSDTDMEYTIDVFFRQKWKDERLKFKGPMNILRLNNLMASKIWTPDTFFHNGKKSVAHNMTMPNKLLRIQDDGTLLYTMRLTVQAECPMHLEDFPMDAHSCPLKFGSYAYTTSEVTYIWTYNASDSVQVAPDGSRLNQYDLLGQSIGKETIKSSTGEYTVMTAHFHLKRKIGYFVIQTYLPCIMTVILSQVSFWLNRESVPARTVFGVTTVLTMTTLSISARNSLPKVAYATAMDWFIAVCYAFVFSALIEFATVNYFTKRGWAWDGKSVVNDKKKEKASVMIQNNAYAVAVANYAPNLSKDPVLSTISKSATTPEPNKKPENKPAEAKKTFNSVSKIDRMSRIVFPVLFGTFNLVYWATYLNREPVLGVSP
α2 subunit-containing GABAA receptors, sequence (P18507 40-475): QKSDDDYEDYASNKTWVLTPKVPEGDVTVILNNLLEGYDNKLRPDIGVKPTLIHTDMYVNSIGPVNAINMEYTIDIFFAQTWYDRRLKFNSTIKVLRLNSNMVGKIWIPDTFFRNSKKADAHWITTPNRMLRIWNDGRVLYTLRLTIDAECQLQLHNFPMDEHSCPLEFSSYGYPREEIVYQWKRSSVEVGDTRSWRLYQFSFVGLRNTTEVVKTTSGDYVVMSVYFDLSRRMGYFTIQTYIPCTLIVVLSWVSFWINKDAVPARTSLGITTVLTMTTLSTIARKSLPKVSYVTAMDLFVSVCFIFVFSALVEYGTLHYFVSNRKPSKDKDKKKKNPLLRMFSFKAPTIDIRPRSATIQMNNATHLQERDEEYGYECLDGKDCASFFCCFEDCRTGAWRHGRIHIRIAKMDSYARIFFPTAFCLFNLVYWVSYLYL
α2 subunit-containing GABAA receptors, sequence (P28472 26-473 partner): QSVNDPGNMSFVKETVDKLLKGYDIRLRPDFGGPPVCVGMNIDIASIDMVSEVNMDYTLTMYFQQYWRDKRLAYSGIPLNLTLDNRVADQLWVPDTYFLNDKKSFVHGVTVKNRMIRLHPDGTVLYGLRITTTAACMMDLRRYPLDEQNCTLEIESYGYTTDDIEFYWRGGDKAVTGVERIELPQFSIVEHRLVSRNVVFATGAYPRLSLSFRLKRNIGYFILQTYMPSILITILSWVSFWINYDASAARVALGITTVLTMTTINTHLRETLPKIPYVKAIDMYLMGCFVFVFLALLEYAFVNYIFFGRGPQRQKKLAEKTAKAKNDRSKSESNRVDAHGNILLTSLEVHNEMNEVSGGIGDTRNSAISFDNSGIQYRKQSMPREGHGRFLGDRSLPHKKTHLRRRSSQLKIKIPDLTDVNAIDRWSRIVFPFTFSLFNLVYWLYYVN
α1 subunit-containing GABAA receptors, sequence (P14867 28-456): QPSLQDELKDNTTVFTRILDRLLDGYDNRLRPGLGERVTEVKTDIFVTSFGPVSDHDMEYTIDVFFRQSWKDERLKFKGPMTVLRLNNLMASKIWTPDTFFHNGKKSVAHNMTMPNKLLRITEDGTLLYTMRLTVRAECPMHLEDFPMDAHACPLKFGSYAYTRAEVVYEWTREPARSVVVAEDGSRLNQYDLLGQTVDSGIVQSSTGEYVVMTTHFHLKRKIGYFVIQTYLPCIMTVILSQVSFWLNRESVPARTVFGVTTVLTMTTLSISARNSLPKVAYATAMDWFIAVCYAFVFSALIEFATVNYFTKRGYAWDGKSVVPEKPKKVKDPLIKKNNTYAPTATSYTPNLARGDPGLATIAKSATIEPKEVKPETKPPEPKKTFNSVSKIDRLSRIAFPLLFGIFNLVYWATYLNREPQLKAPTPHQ
α1 subunit-containing GABAA receptors, sequence (P18507 40-475): as the sequence (P18507 40-475) above
α1 subunit-containing GABAA receptors, sequence (P28472 26-473 partner): as the sequence (P28472 26-473 partner) above
α3 subunit-containing GABAA receptors, sequence (P34903 29-492): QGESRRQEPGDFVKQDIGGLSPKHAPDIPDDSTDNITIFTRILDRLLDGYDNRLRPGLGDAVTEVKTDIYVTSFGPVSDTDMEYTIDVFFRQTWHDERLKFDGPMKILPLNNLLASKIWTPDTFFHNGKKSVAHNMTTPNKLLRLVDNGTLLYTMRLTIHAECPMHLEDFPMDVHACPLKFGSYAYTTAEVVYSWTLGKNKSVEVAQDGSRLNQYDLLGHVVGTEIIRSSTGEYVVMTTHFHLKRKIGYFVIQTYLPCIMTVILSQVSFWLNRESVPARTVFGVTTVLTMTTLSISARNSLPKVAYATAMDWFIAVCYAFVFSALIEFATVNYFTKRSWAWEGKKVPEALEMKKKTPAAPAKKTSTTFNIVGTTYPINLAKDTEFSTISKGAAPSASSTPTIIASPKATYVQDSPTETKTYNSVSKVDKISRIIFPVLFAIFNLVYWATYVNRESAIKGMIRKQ
α3 subunit-containing GABAA receptors, sequence (P18507 40-475): as the sequence (P18507 40-475) above
α3 subunit-containing GABAA receptors, sequence (P28472 26-473 partner): as the sequence (P28472 26-473 partner) above

Consider `CC(C)(O)c1cnn2c(-c3ccc(F)c(-c4c(F)cccc4C#N)c3)cnc2n1` [TPA023B], for which, in series [1], the “occupancy of CNS benzodiazepine binding sites” value is recorded as 50-55%. For the same molecule, in series [2], the “median break point (BP), highest response requirement” value is recorded as 160. The ataxia entry in series [3] (any dose, up to 3.0 mg/70 kg) is “No ataxia”. Moreover, the adverse effects result in series [3] (oral, 1.5 mg/70 kg, men) is reported as “no adverse effects”. Besides, in series [3] (oral, 3.0 mg/70 kg, men), the adverse effects entry is “fatigue and drowsiness in some subjects”; the “subjects with fatigue and drowsiness” value is 1-4 subjects out of 8 total. Besides, the “Subtype α1” value in series [4] is recorded as “none”. The “Subtype α2” value in series [5] was “partial”. In addition, the “highest tolerated dose relative to lowest dose inducing rest/sleep posture” value in series [6] (1.0 mg/kg) is listed as 30 fold. In addition, in series [6] (setting [9]), the “Significant behavioral effects: Decrease” value is on record as “Tactile/Oral Exploration” and the “Significant behavioral effects: Increase” value is reported as “Rest/Sleep Posture”. For the same molecule, the tolerability result in series [6] (up to doses of 1.0 mg/kg) is on record as “well-tolerated”. In addition, the “accuracy in DMTS and SOSS tasks” value in series [7] is reported as “did not alter accuracy”. Further, the “Subtype α3” value in series [8] was “partial”.
